Measured values: patent US20090030083A1, “Use of n-(2-aryl-propionyl)-sulfonamides for the treatment of spinal cord injury” (Dompe' pha.r.ma S.p.A, priority 2004, published 2009)

Experiments:
[1] = tested on: SCI in the rat; assay: free locomotion test (BBB scale) after SCI, i.v./s.c. injection; assay type: in vivo; details: i.v. within 30 minutes after SCI then s.c. until 7th day; (II) 15 mg/kg, (III) 8 mg/kg; FIG. 1 and 2
Experimental: Adult Sprague-Dawley rats (females) weighing 240-260 g were maintained in the animal facilities under standard housing conditions (22±2° C., 65% humidity, artificial light from 06.00-20.00 h). A standard dry diet and water were available ad libitum. […] The force applied was 1N per 1 second. Recovery from hind limb disability was evaluated by means of “free locomotion test” performed 24 hours, 4, 7, 11, 15, 19 and 27 days after SCI. The “free locomotion test” allows the detection of feet positioning, and joint rotation. The quality of functional recovery is quantitatively expressed according to the “BBB scale” developed at the Ohio University. Such a test allows the quantification of rat hind limb free locomotion deficits by observing their movements in an open space free of obstacles: 0—Lesioned rat cannot move either limbs 1—Small movement of a joint (heap or knee) From 2 to 6—Movement in progressive extension of the 3 joints 7—Good movement of the 3 joints 8—Animals walk without plantar support of the weight From 9 to 11—Animals walk from occasionally to progressively frequent with plantar support of the weight. 12—Occasional coordination of hind limbs and forelimbs during walk From 13 to 14—Progressive coordination with the forelimbs. 15—Consistent plantar support of weight and coordination during walk; occasional movement of fingers during advancement. […]

[2] = tested on: oligodendrocytes; assay: apoptosis of oligodendrocytes after SCI (TUNEL); assay type: in vivo, rat; details: 28 days after SCI; for inhibition of oligodendrocyte apoptosis: vs saline; for Number of oligodendrocyte apoptic nuclei (mean ± SE; n = 12): gracilis and cuneatus fascicle, saline 14.9 ± 2
Experimental: (§1) Adult Sprague-Dawley rats (females) weighing 240-260 g were maintained in the animal facilities under standard housing conditions (22±2° C., 65% humidity, artificial light from 06.00-20.00 h). A standard dry diet and water were available ad libitum. SCI in the rat was performed as previously reported (Gorio A. et al. Proc. Natl. Acad. Sci. USA 99, 9450-9455, 2002). The lesioning apparatus is computer controlled and free of the influence of gravity force. The force applied was 1N per 1 second. Apoptosis of oligodendrocytes was determined at the level of the gracilis and cuneatus fascicle (3 mm rostrally from the site of contusion injury) 28 days after SCI using the terminal deoxynucleotidyltransferase-mediated dUTP and labeling (TUNEL) methodology. […] The following days the animals were treated s.c. at 8 am and 5 pm until the 7th day after SCI. Animals were treated with compound of formula (III) (8 mg/kg) by i.v. injection within 30 minutes after SCI, then s.c. 24 hours after SCI. The following days the animals were treated s.c. every 36 hours until the 7th day after SCI.

[3] = tested on: SCI in the rat; assay: extension of post-traumatic cavity / spared tissue at lesion site (histology); assay type: in vivo; details: 28 days after SCI; for Percentage of spared tissue at lesion site (mean ± SE; n = 12), Lesion Epicenter: saline 39.8 ± 3.9; for Percentage of spared tissue at lesion site (mean ± SE; n = 12), Cavity Volume: saline 46.6 ± 3.1
Experimental: as §1, with “Extension” for “Apoptosis”, “post-traumatic cavity” for “oligodendrocytes”, “performed by classical histological techniques” for “determined at the level of the gracilis and cuneatus fascicle (3 mm rostrally from the site of contusion injury)”, “SCI.” for “SCI using the terminal deoxynucleotidyltransferase-mediated dUTP and labeling (TUNEL) methodology.”

[4] = tested on: CD68 positive cells; assay: leukocyte infiltration after SCI (CD68 positive cells); assay type: in vivo, rat; details: for Number of infiltrated leukocytes (mean ± SE; n = 8): 15 mg/kg i.v. then s.c.
Experimental: as §1, with “Leukocyte infiltration” for “Apoptosis of oligodendrocytes”, “quantitatively estimated by CD68 positive cells 1” for “determined at the level of the gracilis”, “7” for “cuneatus fascicle (3 mm rostrally from the site of contusion injury) 28”, “SCI.” for “SCI using the terminal deoxynucleotidyltransferase-mediated dUTP and labeling (TUNEL) methodology.”

SMILES | functional hind limb recovery (motor score, BBB scale), in words [1] | inhibition of oligodendrocyte apoptosis [2] [%] | Number of oligodendrocyte apoptic nuclei (mean ± SE; n = 12) [2] | tissue damage at the site of the lesion and extension of post-traumatic cavity, in words [3] | Percentage of spared tissue at lesion site (mean ± SE; n = 12), Lesion Epicenter [3] [%] | Percentage of spared tissue at lesion site (mean ± SE; n = 12), Cavity Volume [3] [%] | Number of infiltrated leukocytes (mean ± SE; n = 8) ([4]; Epicenter, 1 day from SCI, saline 125 ± 36) | Number of infiltrated leukocytes (mean ± SE; n = 8) ([4]; Epicenter, 7 days from SCI, saline 235 ± 54) | Number of infiltrated leukocytes (mean ± SE; n = 8) ([4]; Periphery, 1 day from SCI, saline 56 ± 13) | Number of infiltrated leukocytes (mean ± SE; n = 8) ([4]; Periphery, 7 days from SCI, saline 99 ± 32) | inhibition of leukocyte infiltration ([4]; at 24 hours and 7 days after SCI, vs saline) [%]
C[C@@H](C(=O)NS(C)(=O)=O)c1ccc(OS(=O)(=O)C(F)(F)F)cc1 [compound of formula (III), R-2-[(4′-trifluoromethanesulphonyloxy)phenyl]-N-methanesulfonyl propionamide] | significantly promoted functional hind limb recovery | 65 | 5.2 ± 3.8 | significantly reduced tissue damage | 49.7 ± 4.2 | 60.4 ± 4.3 | – | – | – | – | –
CC(C)Cc1ccc([C@@H](C)C(=O)NS(C)(=O)=O)cc1 [compound of formula (II), (R)-ibuprofen methanesulfonamide] | – | 85 | 2.1 ± 1.2 | significantly reduced tissue damage | 48.9 ± 3.0 | 58.2 ± 2.9 | 24 ± 3 | 19 ± 3 | 3 ± 1 | 4 ± 2 | 80
